In PubChem BioAssay (NCI):
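Cultured in 96-well plates, cells were exposed to test compound for 48 hours across five concentrations. TGI denotes the concentration required for complete inhibition of growth.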

Legend:
Assay in all cases: NCI-60 cell line screen, 48 h
OVCAR-4 ovarian = test system: OVCAR-4 ovarian
K-562 leukemia = test system: K-562 leukemia
HOP-92 NSCLC = test system: HOP-92 NSCLC
SF-539 CNS = test system: SF-539 CNS
SNB-19 CNS = test system: SNB-19 CNS
CCRF-CEM leukemia = test system: CCRF-CEM leukemia
RXF 393 renal = test system: RXF 393 renal
HS 578T breast = test system: HS 578T breast
COLO 205 colon = test system: COLO 205 colon
MDA-MB-231 breast = test system: MDA-MB-231 breast
OVCAR-3 ovarian = test system: OVCAR-3 ovarian
SK-MEL-5 melanoma = test system: SK-MEL-5 melanoma
HCC-2998 colon = test system: HCC-2998 colon
A549 NSCLC = test system: A549 NSCLC
U251 CNS = test system: U251 CNS
MDA-MB-435 = test system: MDA-MB-435
SK-MEL-28 melanoma = test system: SK-MEL-28 melanoma
MALME-3M melanoma = test system: MALME-3M melanoma
DU-145 prostate = test system: DU-145 prostate
NCI-H226 lung = test system: NCI-H226 lung
NCI-H460 lung = test system: NCI-H460 lung
MOLT-4 leukemia = test system: MOLT-4 leukemia
BT-549 breast = test system: BT-549 breast
NCI/ADR-RES ovarian = test system: NCI/ADR-RES ovarian
SF-295 CNS = test system: SF-295 CNS
SNB-75 CNS = test system: SNB-75 CNS
SK-MEL-2 melanoma = test system: SK-MEL-2 melanoma
UACC-257 melanoma = test system: UACC-257 melanoma
M14 melanoma = test system: M14 melanoma
EKVX NSCLC = test system: EKVX NSCLC
MCF7 breast = test system: MCF7 breast
UACC-62 melanoma = test system: UACC-62 melanoma
HT29 colon = test system: HT29 colon
OVCAR-8 ovarian = test system: OVCAR-8 ovarian
UO-31 renal = test system: UO-31 renal
IGROV1 ovarian = test system: IGROV1 ovarian
SK-OV-3 ovarian = test system: SK-OV-3 ovarian
SW-620 colon = test system: SW-620 colon
MDA-N = test system: MDA-N
PC-3 prostate = test system: PC-3 prostate
HCT-116 colon = test system: HCT-116 colon
HOP-62 NSCLC = test system: HOP-62 NSCLC
KM12 colon = test system: KM12 colon
T-47D breast = test system: T-47D breast
NCI-H23 lung = test system: NCI-H23 lung
CAKI-1 renal = test system: CAKI-1 renal
786-0 renal = test system: 786-0 renal
SF-268 CNS = test system: SF-268 CNS
LOX IMVI melanoma = test system: LOX IMVI melanoma
HCT-15 colon = test system: HCT-15 colon
RPMI-8226 leukemia = test system: RPMI-8226 leukemia
SN12C renal = test system: SN12C renal
OVCAR-5 ovarian = test system: OVCAR-5 ovarian

CCCc1cc(=O)oc2c3c(c4c(c12)OC(C)(C)CC4)O[C@@H](C)[C@H](C)[C@H]3O
TGI (OVCAR-4 ovarian): 22.5 µM | TGI (K-562 leukemia): 7.17 µM | TGI (HOP-92 NSCLC): 26.5 µM | TGI (SF-539 CNS): 38.2 µM | TGI (SNB-19 CNS): 30.9 µM | TGI (CCRF-CEM leukemia): 17.8 µM | TGI (RXF 393 renal): 27.1 µM | TGI (HS 578T breast): 37.5 µM | TGI (COLO 205 colon): 28.6 µM | TGI (MDA-MB-231 breast): 11.1 µM | TGI (OVCAR-3 ovarian): 32.7 µM | TGI (SK-MEL-5 melanoma): 20.3 µM | TGI (HCC-2998 colon): 28.3 µM | TGI (A549 NSCLC): 25.7 µM | TGI (U251 CNS): 29.6 µM | TGI (MDA-MB-435): 22.1 µM | TGI (SK-MEL-28 melanoma): 42 µM | TGI (MALME-3M melanoma): 28 µM | TGI (DU-145 prostate): 31.8 µM | TGI (NCI-H226 lung): 31.6 µM | TGI (NCI-H460 lung): 24.2 µM | TGI (MOLT-4 leukemia): 13.7 µM | TGI (BT-549 breast): 17.9 µM | TGI (NCI/ADR-RES ovarian): 29.1 µM | TGI (SF-295 CNS): 28.5 µM | TGI (SNB-75 CNS): 22.5 µM | TGI (SK-MEL-2 melanoma): 29.9 µM | TGI (UACC-257 melanoma): 17.7 µM | TGI (M14 melanoma): 28.3 µM | TGI (EKVX NSCLC): 29.4 µM | TGI (MCF7 breast): 47.3 µM | TGI (UACC-62 melanoma): 21.1 µM | TGI (HT29 colon): 20.7 µM | TGI (OVCAR-8 ovarian): 29.9 µM | TGI (UO-31 renal): 19 µM | TGI (IGROV1 ovarian): 32.7 µM | TGI (SK-OV-3 ovarian): 32.6 µM | TGI (SW-620 colon): 36.8 µM | TGI (MDA-N): 16.4 µM | TGI (PC-3 prostate): 15.5 µM | TGI (HCT-116 colon): 22.2 µM | TGI (HOP-62 NSCLC): 33.4 µM | TGI (KM12 colon): 29.9 µM | TGI (T-47D breast): 23.2 µM | TGI (NCI-H23 lung): 25 µM | TGI (CAKI-1 renal): 49.7 µM | TGI (786-0 renal): 18.1 µM | TGI (SF-268 CNS): 30.3 µM | TGI (LOX IMVI melanoma): 30 µM | TGI (HCT-15 colon): 25.2 µM | TGI (RPMI-8226 leukemia): 8.74 µM | TGI (SN12C renal): 18.9 µM | TGI (OVCAR-5 ovarian): 26.3 µM
